According to paper PMC10439952, “JT002, a small molecule inhibitor of the NLRP3 inflammasome for the treatment of autoinflammatory disorders” (Scientific Reports, 2023):

Tests used:
[1] = system: autocatalytic cleavage of pro-caspase-1 (p45) into the p10 subunit; experiment: Western blot for caspase-1 p10 in LPS + nigericin stimulated mouse BMDM lysates and supernatants; assay type: cell-based; conditions: LPS + nigericin treated mBMDMs, compound 10 µM
Procedure: BMDMs were activated with LPS and nigericin as described above and were lysed in situ with 50 μL of 4× NuPAGE LDS sample buffer (Fisher Scientific, Hampton, NH) + 5% β-mercaptoethanol and prepared for polyacrylamide gel electrophoresis. Samples were run on NuPAGE Bis–Tris gels (Fisher Scientific, Hampton, NH) and transferred to polyvinylidene difluoride (PVDF) membranes (Fisher Scientific, Hampton, NH) using the iBlot® 2 Dry Blotting System (Fisher Scientific, Hampton, NH). Washed PVDF membranes were blocked and then probed with the following primary antibodies: procaspase-1 + p10 + p12 [EPR16883] (Abcam, Cambridge, MA), β-actin (AC-74, Sigma-Aldrich, St. Louis, MO) and NLRP3 [Cryo-2] (AdipoGen Life Sciences, San Diego, CA). Bound primary antibodies were detected using HRP-labeled secondary antibodies and membranes were imaged with an Azure c300 imager (Azure Biosystems, Dublin, CA). Bands were quantitated using ImageJ software.

[2] = parameters: method as in PMID 26206150; conditions: daily dose of 1200 mg; development terminated; cited from earlier work
[3] = system: murine house dust mite model of severe corticosteroid-resistant asthma; parameters: method as in PMID 28528200; conditions: i.p. administration; cited from earlier work

SMILES | formation of the caspase-1 p10 subunit (autocatalytic cleavage of pro-caspase-1) [1] | liver safety in the clinic [2] | bronchoalveolar lavage IL-1β concentrations [3] | bronchoalveolar lavage neutrophilia [3] | development of airway hyperresponsiveness [3] | p10 component in cell supernatants [1]
CC(C)(O)c1coc(S(=O)(=O)NC(=O)Nc2c3c(cc4c2CCC4)CCC3)c1 [MCC950] | blocked formation of the p10 subunit and its release from the cell | drug induced liver injury (DILI) detected | reduced | reduced | completely prevented | –
CCOC(=O)C1=CCCC[C@H]1S(=O)(=O)Nc1ccc(F)cc1Cl [TAK242, ethyl (6R)-6-[N-(2-Chloro-4-fluorophenyl)sulfamoyl]cyclohex-1-ene-1-carboxylate] | did not inhibit the autocatalytic cleavage of pro-caspase-1 into the p10 subunit | – | – | – | – | appearance of the p10 component in cell supernatants
C[C@H](NC(=O)C(=O)Nc1ccccc1C(C)(C)C)C(=O)N[C@@H](CC(=O)O)C(=O)COc1c(F)c(F)cc(F)c1F [emricasan] | did not inhibit the autocatalytic cleavage of pro-caspase-1 into the p10 subunit | – | – | – | – | –
